Drawing on the NIST ThermoML archive (doi:10.1016/j.jct.2013.07.011), this text covers mass density for 7 compounds.

For the data set the following is noted: 298.15 K; 101.33 kPa; Liquid; Vibrating tube method.

Molecules are shown by their SMILES. Numbers after ± are expanded uncertainties.

Turning to `CCCCn1cc[n+](C)c1.COS(=O)(=O)[O-]` [1-butyl-3-methylimidazolium methyl sulfate], the mass density (as a rule, mass per unit of volume) is listed as 1212.59 ± 4 kg/m3.

Consider `CCCC[n+]1ccn(C)c1.O=S(=O)([N-]S(=O)(=O)C(F)(F)F)C(F)(F)F`, for which the mass density stood at 1436.35 ± 4 kg/m3.

In the case of `CCCCCCCC` [octane], the mass density was determined as 698.6 ± 0.23 kg/m3.

With `c1ccccc1` [benzene], the mass density was 873.57 ± 0.11 kg/m3.

Take `C1CCCCCCC1` [cyclooctane]: the mass density was 831.47 ± 0.3 kg/m3.

On to `CCCCCCCCC` [nonane], for which the mass density turned out to be 713.99 ± 0.32 kg/m3.

For the compound `Cc1ccccc1` [toluene], the mass density is reported as 862.17 ± 0.11 kg/m3.
